For this assay, the target named is T1, human Nav1.7 (Homo sapiens, UniProt Q15858).
T1 construct: expressed in transfected cells
Put plainly: Assessment of Nav1.7 activity on PatchXpress (voltage dependence / slow inactivation parameters). In kind it is cell-based. The settings on record: compound at 10 μM, relative to 0.2% DMSO vehicle control; for hNav1.7: Reduction in current at 20 mV (normalized data) Delta Ratio: before/after 30 sec conditioning pulse at 20 mV; for hNav1.7: Shift in voltage dependence of inactivation (mV) Delta Vhalf: PatchXpress. Here is the method: The generation of a HEK 293F cell line stably expressing human Nav1.7/Navp1 was achieved by co-transfecting human SCN9A and human SCN1B cDNAs, subcloned into plasmid vectors, utilizing standard transfection techniques. Clones were selected using appropriate selection agents (0.3 mg/mL Zeocin and 0.8 mg/mL Geneticin) and maintained in Dulbecco's Modified Eagle medium, 10% fetal bovine serum, 1% non-essential amino acids to ˜80% confluence at 37° C. in a humidified incubator with 95% atmosphere and 5% CO2.
On the day of each experiment, cells that were grown to 80% confluence in a T75 flask were harvested for use on PatchXpress (Molecular Devices, CA, USA). Following a recovery period at 37° C. in a humidified incubator with 95% atmosphere and 5% CO2 in Dulbecco's Modified Eagle Medium, the media was replaced with an external recording solution containing (in mM): 90 TEACI, 50 NaCl, 1.8 CaCl2, 1 MgCl2, 10 HEPES, 10 glucose, adjusted to pH 7.4 with TEAOH and 300 mOsm with sucrose. The internal recording solution contained (in mM): 129 CsF, 2 MgCl2, 11 EGTA, 10 HEPES, 6 NaCl, 3 Na2ATP adjusted to pH 7.2 with CsOH and 280 mOsm with sucrose. The automated liquid handling facility of PatchXpress dispensed cells and added compound. Modulation of Nav1.7 channels by compounds was assessed by promoting the channels into the inactivated state using a conditioning voltage pulse of variable amplitude, followed by a brief hyperpolarizing pulse with a subsequent depolarized voltage step to measure the current amplitude in the presence and absence of compound. Compounds were assayed at 10 μM. Based upon this Patch express protocol, four electrophysiological parameters were measured relative to a 0.2% DMSO vehicle control (Table 2).

Molecules are shown by their SMILES.

T1 sequence (Q15858 whole entry): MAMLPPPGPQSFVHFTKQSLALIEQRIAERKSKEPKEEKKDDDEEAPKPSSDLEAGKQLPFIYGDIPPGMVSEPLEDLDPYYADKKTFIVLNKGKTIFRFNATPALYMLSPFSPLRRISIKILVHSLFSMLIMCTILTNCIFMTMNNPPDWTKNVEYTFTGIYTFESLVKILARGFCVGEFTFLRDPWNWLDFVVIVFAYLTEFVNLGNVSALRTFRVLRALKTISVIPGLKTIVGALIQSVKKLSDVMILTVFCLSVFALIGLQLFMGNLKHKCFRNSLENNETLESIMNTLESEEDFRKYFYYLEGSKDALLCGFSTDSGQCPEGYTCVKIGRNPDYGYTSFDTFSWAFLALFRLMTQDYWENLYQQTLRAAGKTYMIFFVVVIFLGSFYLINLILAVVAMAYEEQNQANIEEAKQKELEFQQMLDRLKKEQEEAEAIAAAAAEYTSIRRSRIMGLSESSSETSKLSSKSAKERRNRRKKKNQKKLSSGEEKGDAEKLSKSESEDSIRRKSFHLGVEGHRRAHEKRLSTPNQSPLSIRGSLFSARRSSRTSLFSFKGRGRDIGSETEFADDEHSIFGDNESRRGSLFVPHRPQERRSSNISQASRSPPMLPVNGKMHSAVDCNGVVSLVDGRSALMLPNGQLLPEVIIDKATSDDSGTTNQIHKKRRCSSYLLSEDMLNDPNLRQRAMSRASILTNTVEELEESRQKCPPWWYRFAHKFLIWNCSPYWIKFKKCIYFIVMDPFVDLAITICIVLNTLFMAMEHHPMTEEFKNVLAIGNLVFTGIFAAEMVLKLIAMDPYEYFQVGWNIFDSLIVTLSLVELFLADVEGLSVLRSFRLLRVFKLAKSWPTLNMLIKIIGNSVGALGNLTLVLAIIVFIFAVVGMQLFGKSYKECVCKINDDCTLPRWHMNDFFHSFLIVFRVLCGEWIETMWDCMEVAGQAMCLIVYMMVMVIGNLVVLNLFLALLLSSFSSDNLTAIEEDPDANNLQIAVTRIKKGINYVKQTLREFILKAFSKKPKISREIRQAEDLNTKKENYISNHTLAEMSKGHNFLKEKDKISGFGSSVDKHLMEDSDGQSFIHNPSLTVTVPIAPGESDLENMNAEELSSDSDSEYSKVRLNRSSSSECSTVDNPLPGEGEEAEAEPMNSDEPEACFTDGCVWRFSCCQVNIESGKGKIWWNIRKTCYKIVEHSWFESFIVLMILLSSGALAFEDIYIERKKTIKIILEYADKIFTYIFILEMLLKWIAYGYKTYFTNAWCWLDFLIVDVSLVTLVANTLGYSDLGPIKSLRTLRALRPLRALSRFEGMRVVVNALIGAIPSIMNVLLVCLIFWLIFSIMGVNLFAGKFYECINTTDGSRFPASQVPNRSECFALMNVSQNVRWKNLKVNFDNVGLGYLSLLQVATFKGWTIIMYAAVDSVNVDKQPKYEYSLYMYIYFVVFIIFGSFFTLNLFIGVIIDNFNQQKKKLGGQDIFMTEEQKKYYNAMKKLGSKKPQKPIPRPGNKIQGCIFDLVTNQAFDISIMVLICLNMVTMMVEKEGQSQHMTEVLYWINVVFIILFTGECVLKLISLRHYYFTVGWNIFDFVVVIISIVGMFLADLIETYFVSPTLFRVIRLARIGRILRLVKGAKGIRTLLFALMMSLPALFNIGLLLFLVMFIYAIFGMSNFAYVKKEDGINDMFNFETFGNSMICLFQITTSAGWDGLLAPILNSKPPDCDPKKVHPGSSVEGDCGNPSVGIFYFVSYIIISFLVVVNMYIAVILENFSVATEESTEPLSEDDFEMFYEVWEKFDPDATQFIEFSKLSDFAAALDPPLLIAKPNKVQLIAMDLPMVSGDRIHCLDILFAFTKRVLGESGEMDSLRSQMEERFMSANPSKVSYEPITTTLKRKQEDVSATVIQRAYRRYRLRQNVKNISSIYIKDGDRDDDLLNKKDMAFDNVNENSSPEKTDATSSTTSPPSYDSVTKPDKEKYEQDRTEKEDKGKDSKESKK
T1 sequence (Q07699 19-218 partner): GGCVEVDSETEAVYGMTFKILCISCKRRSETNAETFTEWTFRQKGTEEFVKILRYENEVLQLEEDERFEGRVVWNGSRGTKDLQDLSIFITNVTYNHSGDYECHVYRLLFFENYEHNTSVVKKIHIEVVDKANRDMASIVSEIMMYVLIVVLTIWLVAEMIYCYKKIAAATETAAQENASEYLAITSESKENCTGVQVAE

With `O=C(NC[C@H]1CCCN1)Nc1cc(C(F)(F)F)cc(C(F)(F)F)c1` [Compound 49, (R)-1-(3,5-bis(trifluoromethyl)phenyl)-3-(pyrrolidin-2-ylmethyl)urea], the “hNav1.7: Reduction in current at 20 mV (normalized data) Delta Ratio” value is reported as −0.18, the “hNav1.7: Voltage dependence of activation (mV) VDEP” value was −10.20 mV, the “hNav1.7: Voltage dependence of fast inactivation (mV) VDEP” value is listed as −7.80 mV and the “hNav1.7: Shift in voltage dependence of inactivation (mV) Delta Vhalf” value (“hNav1.7: Shift … (mV) Delta Vhalf” below) was −6.40 mV.

Turning to `CC(=O)N1CCC(NC(=O)Nc2ccc(OC(F)(F)F)cc2)CC1` [Compound 50, 1-(1-acetylpiperidin-4-yl)-3-(4-(trifluoromethoxy)phenyl)urea], the “hNav1.7: Reduction in current at 20 mV (normalized data) Delta Ratio” value worked out at 0.02, the “hNav1.7: Voltage dependence of activation (mV) VDEP” value is −8.30 mV, the “hNav1.7: Voltage dependence of fast inactivation (mV) VDEP” value is listed as −2.10 mV and the “hNav1.7: Shift … (mV) Delta Vhalf” value was −0.30 mV.

As for `NC[C@@H]1Nc2c(cc(C(F)(F)F)cc2C(F)(F)F)NC1=O` [Compound 40, (S)-3-(aminomethyl)-5,7-bis(trifluoromethyl)-3,4-dihydroquinoxalin-2(1H)-one], the “hNav1.7: Reduction in current at 20 mV (normalized data) Delta Ratio” value is listed as −0.02, the “hNav1.7: Voltage dependence of activation (mV) VDEP” value is −6.60 mV, the “hNav1.7: Voltage dependence of fast inactivation (mV) VDEP” value is −2.60 mV and the “hNav1.7: Shift … (mV) Delta Vhalf” value is recorded as −3.90 mV.

For `Cc1cccc(C)c1OCC(C)NC(=O)CN` (stereo not drawn) [Compound 17, 2-amino-N-(1-(2,6-dimethylphenoxy)propan-2-yl)acetamide], the “hNav1.7: Reduction in current at 20 mV (normalized data) Delta Ratio” value is −0.10, the “hNav1.7: Voltage dependence of activation (mV) VDEP” value was −5.80 mV, the “hNav1.7: Voltage dependence of fast inactivation (mV) VDEP” value is reported as −5.90 mV and the “hNav1.7: Shift … (mV) Delta Vhalf” value is recorded as −12.40 mV.

For the molecule `CC(C)(c1nc2cc(F)cc(F)c2[nH]1)N1CCNCC1=O` [Compound 64, 1-(2-(4,6-difluoro-1H-benzo[d]imidazol-2-yl)propan-2-yl)piperazin-2-one], the “hNav1.7: Reduction in current at 20 mV (normalized data) Delta Ratio” value is reported as −0.16, the “hNav1.7: Voltage dependence of activation (mV) VDEP” value is recorded as −7.1 mV, the “hNav1.7: Voltage dependence of fast inactivation (mV) VDEP” value is −5.9 mV and the “hNav1.7: Shift … (mV) Delta Vhalf” value is −5.4 mV.

For `CC(C)(CC(=O)N1CCNCC1)c1nc2cc(C(F)(F)F)cc(C(F)(F)F)c2[nH]1` [Compound 62, 3-(4,6-bis(trifluoromethyl)-1H-benzo[d]imidazol-2-yl)-3-methyl-1-(piperazin-1-yl)butan-1-one], the “hNav1.7: Reduction in current at 20 mV (normalized data) Delta Ratio” value is −0.19, the “hNav1.7: Voltage dependence of activation (mV) VDEP” value is listed as −7.4 mV, the “hNav1.7: Voltage dependence of fast inactivation (mV) VDEP” value is on record as −3.8 mV and the “hNav1.7: Shift … (mV) Delta Vhalf” value was −12.5 mV.

With `Cc1cccc(C)c1OCC(C)NC(=O)[C@H](N)CC(C)C` (stereo partly drawn) [Compound 2, (2R)-2-amino-N-(1-(2,6-dimethylphenoxy)propan-2-yl)-4-methylpentanamide], the “hNav1.7: Reduction in current at 20 mV (normalized data) Delta Ratio” value is listed as −0.29, the “hNav1.7: Voltage dependence of activation (mV) VDEP” value was −10.00 mV, the “hNav1.7: Voltage dependence of fast inactivation (mV) VDEP” value is on record as −8.20 mV and the “hNav1.7: Shift … (mV) Delta Vhalf” value is −32.20 mV.

Turning to `O=C(NCCOc1cc(F)cc(C(F)(F)F)c1)[C@@H]1CCCN1` [Compound 22, (S)-N-(2-(3-fluoro-5-(trifluoromethyl)phenoxy)ethyl) pyrrolidine-2-carboxamide], the “hNav1.7: Reduction in current at 20 mV (normalized data) Delta Ratio” value is given as 0.06, the “hNav1.7: Voltage dependence of activation (mV) VDEP” value was −6.50 mV, the “hNav1.7: Voltage dependence of fast inactivation (mV) VDEP” value is given as −1.80 mV and the “hNav1.7: Shift … (mV) Delta Vhalf” value is given as −7.00 mV.

On to `CC[C@H](C)[C@H](N)C(=O)NCCOc1cc(C(F)(F)F)cc(C(F)(F)F)c1` [Compound 7, (2S,3S)-2-amino-N-(2-(3,5-bis(trifluoromethyl)phenoxy)ethyl)-3-methylpentanamide], for which the “hNav1.7: Reduction in current at 20 mV (normalized data) Delta Ratio” value was −0.24, the “hNav1.7: Voltage dependence of activation (mV) VDEP” value is given as −8.10 mV, the “hNav1.7: Voltage dependence of fast inactivation (mV) VDEP” value was −6.60 mV and the “hNav1.7: Shift … (mV) Delta Vhalf” value is recorded as −21.40 mV.

Turning to `CN(Cc1nc2c(C(F)(F)F)cc(C(F)(F)F)cc2[nH]1)C(=O)CNC(C)(C)C` [Compound 77, N-((4,6-bis(trifluoromethyl)-1H-benzo[d]imidazol-2-yl)methyl)-2-(tert-butylamino)-N-methylacetamide], the “hNav1.7: Reduction in current at 20 mV (normalized data) Delta Ratio” value is −0.06, the “hNav1.7: Voltage dependence of activation (mV) VDEP” value is −2.2 mV, the “hNav1.7: Voltage dependence of fast inactivation (mV) VDEP” value is on record as −5 mV and the “hNav1.7: Shift … (mV) Delta Vhalf” value is reported as −0.3 mV.

As for `O=C(NCCOc1cc(C(F)(F)F)cc(C(F)(F)F)c1)C1CCCN1` (stereo not drawn) [Compound 14, N-(2-(3,5-bis(trifluoromethyl)phenoxy)ethyl) pyrrolidine-2-carboxamide], the “hNav1.7: Reduction in current at 20 mV (normalized data) Delta Ratio” value is reported as −0.17, the “hNav1.7: Voltage dependence of activation (mV) VDEP” value is recorded as −4.00 mV, the “hNav1.7: Voltage dependence of fast inactivation (mV) VDEP” value is given as −1.10 mV and the “hNav1.7: Shift … (mV) Delta Vhalf” value was −25.30 mV.

Turning to `O=C(NCCc1c[nH]c2ccc(F)cc12)[C@@H]1CCCN1` [Compound 48, (S)-N-(2-(5-fluoro-1H-indol-3-yl)ethyl)pyrrolidine-2-carboxamide], the “hNav1.7: Reduction in current at 20 mV (normalized data) Delta Ratio” value was −0.01, the “hNav1.7: Voltage dependence of activation (mV) VDEP” value was −4.80 mV, the “hNav1.7: Voltage dependence of fast inactivation (mV) VDEP” value is −3.00 mV and the “hNav1.7: Shift … (mV) Delta Vhalf” value is reported as −1.80 mV.

As for `NCC[C@@H]1Nc2c(cc(C(F)(F)F)cc2C(F)(F)F)NC1=O` [Compound 39, (S)-3-(2-aminoethyl)-5,7-bis(trifluoromethyl)-3,4-dihydroquinoxalin-2(1H)-one], the “hNav1.7: Reduction in current at 20 mV (normalized data) Delta Ratio” value is recorded as −0.08, the “hNav1.7: Voltage dependence of activation (mV) VDEP” value is −7.40 mV, the “hNav1.7: Voltage dependence of fast inactivation (mV) VDEP” value is reported as −3.10 mV and the “hNav1.7: Shift … (mV) Delta Vhalf” value is recorded as −4.90 mV.

As for `O=C(NCCOc1cc(F)cc(C(F)(F)F)c1)[C@H]1CCCN1` [Compound 20, (R)-N-(2-(3-fluoro-5-(trifluoromethyl)phenoxy)ethyl) pyrrolidine-2-carboxamide], the “hNav1.7: Reduction in current at 20 mV (normalized data) Delta Ratio” value is given as −0.01, the “hNav1.7: Voltage dependence of activation (mV) VDEP” value is recorded as −6.80 mV, the “hNav1.7: Voltage dependence of fast inactivation (mV) VDEP” value was −4.40 mV and the “hNav1.7: Shift … (mV) Delta Vhalf” value is given as −7.20 mV.

In the case of `CC(C)(C)OC(=O)N[C@H](Cc1cccc(C(F)(F)F)c1)C(=O)NCc1nc2c(C(F)(F)F)cc(C(F)(F)F)cc2[nH]1` [Compound 73, tert-butyl (R)-(1-(((4,6-bis(trifluoromethyl)-1H-benzo[d]imidazol-2-yl)methyl)amino)-1-oxo-3-(3-(trifluoromethyl)phenyl)propan-2-yl)carbamate], the “hNav1.7: Reduction in current at 20 mV (normalized data) Delta Ratio” value is recorded as −0.07, the “hNav1.7: Voltage dependence of activation (mV) VDEP” value is listed as −12.5 mV, the “hNav1.7: Voltage dependence of fast inactivation (mV) VDEP” value was −5.4 mV and the “hNav1.7: Shift … (mV) Delta Vhalf” value is reported as −3.7 mV.

The values are drawn from patent US20170107203A1, “HETEROCYCLIC INHIBITORS OF THE SODIUM CHANNEL” (EPIRUS BIOPHARMACEUTICALS, INC., priority 2014, published 2017).
